Test [1] has as its target T1, α1A-AR (Homo sapiens, UniProt P35348).
T1 sequence (P35348 1-466): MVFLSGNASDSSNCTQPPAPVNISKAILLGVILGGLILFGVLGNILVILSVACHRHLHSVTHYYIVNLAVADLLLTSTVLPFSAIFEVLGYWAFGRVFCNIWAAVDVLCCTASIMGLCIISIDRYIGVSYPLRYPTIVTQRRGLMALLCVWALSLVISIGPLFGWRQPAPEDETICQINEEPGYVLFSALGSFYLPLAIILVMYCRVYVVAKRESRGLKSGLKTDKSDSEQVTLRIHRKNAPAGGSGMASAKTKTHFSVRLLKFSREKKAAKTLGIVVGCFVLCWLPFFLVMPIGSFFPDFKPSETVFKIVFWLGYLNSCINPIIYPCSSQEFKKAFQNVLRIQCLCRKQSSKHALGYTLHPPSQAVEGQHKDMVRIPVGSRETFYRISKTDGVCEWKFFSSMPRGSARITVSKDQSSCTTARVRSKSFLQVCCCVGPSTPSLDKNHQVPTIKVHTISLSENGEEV
Nature of the test: cAMP assay at α1A-AR. Format: cell-based. Further details: expressed in transfected cells; host or cells: Rat-1 fibroblast cells. The following applies: for effect on epinephrine-mediated cAMP response at the α1A-AR: 10^−5M to 10^−7M of compound; for effect on norepinephrine-mediated cAMP response at the α1A-AR: 10^−5M to 10^−9M of compound. The procedure:
cAMP assay: Cells expressing a single α1-adrenergic receptor subtype are washed and re-plated into 24-well plates in DMEM media without serum at approximately 2.4×10^4 cells/well. Cells are allowed to rest till the next day in a CO2 incubator at 37° C. The cells are washed twice with DMEM (no serum), then 1 ml of DMEM is added to each well. Cells are pre-incubated for 45 mins-1 hour at 37° C. in a CO2 incubator with 10 uM propranolol, followed by 100 uM IBMX for 30 minutes. Final DMSO concentration is at 0.05%. Norepinephrine or epinephrine is added in a dose response (1 dose per well) in addition to one of the Compounds 1-10 at one concentration (i.e. 10^−5M). Cells are incubated for another 30 mins at 37° C. in a CO2 incubator. The reaction is concluded by aspirating the media and adding 0.1M HCL. The mixture is incubated for 20 mins at room temperature. The cells are scraped and suspended until homogenous. The mixture is centrifuged at 1000 g for 10 mins and the supernatant assayed the same day according to a manufacturer's cAMP kit (Cayman Select Cyclic AMP EIA kit #501040).
Background: Changes in cAMP serve as a functional read-out for many G protein-coupled receptors.

The target of test [2] is T1, α1A-AR. The test can be described thus: Total inositol phosphate assay at α1A-AR. Format: cell-based. More on the design: expressed in transfected cells; host or cells: Rat-1 fibroblast cells. The following applies: for stimulation of inositol phosphate / agonist activity by the compound by itself: compound alone. The procedure: Total Inositol Phosphate assay: Cells expressing a single α1-adrenergic receptor subtypes are washed and re-plated into 6-well plates containing DMEM media at approximately 5×10^5 cells/well. Cells are allowed to rest till the next day in a CO2 incubator at 37° C. The cells are washed twice with DMEM (no serum), then 2 ml of DMEM is added to each well. 2 ul of ^3H-inositol (at 1 uCi/mL, Perkin-Elmer NET 114 005MC) and 10 mM LiCl is added to each well. The cells are incubated for 1 hour at 37° C. in a CO2 incubator. […] The cells are incubated again for 1 hour at 37° C. in a CO2 incubator. The media is aspirated and 1 mL of ice-cold 0.4M perchloric acid is added. The cells are scraped, transferred to a vial, then 1 mL 0.72M KOH/0.6M KHCO3 is added, the tube vortexed and the contents centrifuged at 2000 rpm for 10 mins. The supernatant is removed and applied to BioRad polyprep columns packed with 1 mL of AG1-X8 resin (BioRad AG1-X8 resin 100-200 mesh #140-1444) in 0.1M formic acid in a holding tray which is over a plastic catch tray. The supernatant is allowed to naturally drip through the column then washed with 8 ml of 0.1M formic acid (2 ml at a time). The columns are transferred via the holding tray to a box of 20 ml scintillation vials so that the columns drip directly into the vials. Total inositol phosphates are eluted off the column with 2 ml of 0.1M formic acid/1M ammonium formate. The columns are eluted a second time into a new scintillation vial with another 2 ml of 0.1M formic acid/1M ammonium formate. 18 ml of Ecoscint A is added to each scintillation vial and vortexed. The vials are allowed to dark adapt overnight at room temperature to reduce autofluorescence. The vials are counted in a scintillation counter on the tritium channel and the cpms from the first and second fractions eluted off the columns are added together.

The target of test [3] is T1, α1A-AR. The test can be described thus: Competition binding with [125I]HEAT at α1A-AR (Rat-1 fibroblast membranes). More on the design: expressed in transfected cells; host or cells: Rat-1 fibroblast cells. The procedure: Competition binding assays: […] Assays were performed in duplicate in HEM buffer, in a total assay volume of 1000 μl. […] The above conditions will convert all the conformations of the receptor into a single low affinity site. To show both high and low affinity sites of the receptor (typically seen with GPCR agonists), the GTP is removed from the binding buffer. Nonspecific binding was determined experimentally in the presence of 10^−4 M phentolamine. Unbound radioactivity was separated from membrane-bound radioactivity by filtration through Whatman GF/C filter paper. Filters are washed five times with 5 ml of cold HEM buffer containing 0.5 mMGTP (if added to the binding buffer but not if it was not added to the binding buffer). Bound radioactivity remaining on the filters was counted on an ICN gamma counter operating at 79.8% efficiency. Data are analyzed using Graphpad Prism.

Test [4] addresses T1, α1A-AR. The test can be described thus: Effect of compound on binding affinity of norepinephrine, epinephrine or other ligands at α1A-AR. The following applies: for effect on binding affinity of epinephrine at the α1A-AR: 10^−5M (highest dose tested); for effect on binding affinity of norepinephrine at the α1A-AR: fixed dose of compound, 10^−5M to 10^−9M. Further details: expressed in transfected cells; host or cells: Rat-1 fibroblast cells. The procedure:
Competition binding assays: These compounds were characterized for their ligand binding properties at the α1-AR subtypes. The binding affinities of Compounds 1-10 were determined in a series of competition-binding experiments with the α1-AR-selective antagonist [^125I]HEAT as the radioligand. Assays were performed in duplicate in HEM buffer, in a total assay volume of 1000 μl. Radioligand binding assays are composed of 5 ug of membranes, harvested from Rat-1 fibroblast cells expressing only one of the alpha1-AR subtypes, HEM buffer containing GTP (composed of 20 mM HEPES, pH 7.4, 1.4 mM EGTA, 12.5 mM MgCl2, pH to 7.4), 0.5 mM GTP, 35-80 pM^125I-HEAT, and various doses of norepinephrine or epinephrine and incubated with shaking at 25° C. for 1-2 hours. The above conditions will convert all the conformations of the receptor into a single low affinity site. To show both high and low affinity sites of the receptor (typically seen with GPCR agonists), the GTP is removed from the binding buffer. Nonspecific binding was determined experimentally in the presence of 10^−4 M phentolamine. Unbound radioactivity was separated from membrane-bound radioactivity by filtration through Whatman GF/C filter paper. Filters are washed five times with 5 ml of cold HEM buffer containing 0.5 mMGTP (if added to the binding buffer but not if it was not added to the binding buffer). Bound radioactivity remaining on the filters was counted on an ICN gamma counter operating at 79.8% efficiency. Data are analyzed using Graphpad Prism.
To determine the effects of compounds 1-10 on the binding affinity of norepinephrine or epinephrine, the competition binding assay was repeated as above with one dose of each individual compound (i.e. 10^−5M) added to each concentration point. Data are normalized to the norepinephrine or epinephrine binding curve alone without the addition of the compound to measure its effect on binding.

In another test the test system is Normal mice. The conditions noted are these: cited from earlier work.
Another test has as its target α1-ARs. The conditions noted are these: read-out: calculated Ki; cited from earlier work.

Molecules are shown by their SMILES. Entries after “also recorded” stand apart in the source; their conditions may differ.

For `Cc1c(OCC2=NCCN2)ccc(Cl)c1NS(C)(=O)=O.Cl` [RO115-1240], on α1A-AR [1], the “PAM activity / PAM type” value is recorded as “no evidence of PAM activity”; the “effect on epinephrine-mediated cAMP response at the α1A-AR” value is listed as “competitive, not PAM behavior; also recorded: shift the curve to the right to lower potency (inhibition)”; the “effect on norepinephrine-mediated cAMP response at the α1A-AR” value is “antagonist at cAMP; also recorded: competitive, not PAM behavior; also recorded: shift the curve to the right to lower potency (inhibition)”. Moreover, at α1A-AR [2], the “effect on epinephrine-mediated inositol phosphate response at the α1A-AR” value is “competitive/noncompetitive partial agonism, not PAM behavior”; the “effect on norepinephrine-mediated inositol phosphate response at the α1A-AR” value was “competitive/noncompetitive partial agonism, not PAM behavior”; the “stimulation of inositol phosphate / agonist activity by the compound by itself” value was “weak partial agonist; also recorded: significant IP response on its own”. Moreover, at α1A-AR [3], the “binding behaviour against radiolabeled antagonist 125I-HEAT (full inhibition; competitive or allosteric)” value is reported as “competitive not allosteric behavior”; the “selectivity for the α1A-AR over the α1B-AR and α1D-AR subtypes” value was determined as 100 fold.
`c1ccc(C2CC2)c(OCC2=NCCN2)c1` [cirazoline]: on α1A-AR [4], the “effect on binding affinity of epinephrine at the α1A-AR” value is recorded as “totally inhibit the binding” and the “effect on binding affinity of norepinephrine at the α1A-AR” value was “totally inhibit the binding”. Moreover, at α1A-AR [4] (listed as Cirazoline), the “effect on binding affinity of epinephrine at the α1A-AR” value is “fully inhibit” and the “effect on binding affinity of norepinephrine at the α1A-AR” value was “does not increase the affinity of norepinephrine”. In addition, in the test with Normal mice, the cognition result was “increased” and the neurogenesis entry is on record as “increased”. Further, on α1A-AR [1], the “PAM activity / PAM type” value is “no evidence of PAM activity”; the “effect on epinephrine-mediated cAMP response at the α1A-AR” value is “competitive, not PAM behavior”; the “effect on norepinephrine-mediated cAMP response at the α1A-AR” value was “competitive, not PAM behavior”. At α1A-AR [2], the “effect on epinephrine-mediated inositol phosphate response at the α1A-AR” value was “competitive/noncompetitive partial agonism, not PAM behavior”; the “effect on norepinephrine-mediated inositol phosphate response at the α1A-AR” value is recorded as “competitive/noncompetitive partial agonism, not PAM behavior”; the “stimulation of inositol phosphate / agonist activity by the compound by itself” value is “full agonist at the IP response; also recorded: strong agonist at the IP response”.
As for `COc1cc2nc(N3CCN(C(=O)c4ccco4)CC3)nc(N)c2cc1OC` [prazosin], at α1-ARs, the inhibition constant Ki is 1 nM.

What is called Ki is the equilibrium dissociation constant of an inhibitor or competing ligand from its target.

Values taken from patent US12384751B2, “Allosteric activators of the ALPHA1A-adrenergic receptor” (The Cleveland Clinic Foundation, priority 2019, dated 2025).
